Experiments:
[1] = tested on: PC-3 cells; experiment: In vitro GRPR specificity assay (uptake with or without NOTA-PEG2-RM26 block); format: cell-based, human; conditions: 1 nM radiopeptide, 1 h at 37 °C, block with 1 µM NOTA-PEG2-RM26, n = 3
Experimental: After discarding the medium, the cells were washed with cold (4 °C) phosphate-buffered saline containing 1% w/v bovine serum albumin (PBS/BSA). The radiopeptides (Cf = 1 nM in 1 mL PBS/BSA) were added to all wells. A subset of wells was also treated with an excess of unlabeled GRPR-binding peptide NOTA-PEG2-RM26 (Bjäreback et al. [2025]) (Cf = 1 µM in 1 mL PBS/BSA) to block GRPR. After incubation for 1 h at 37 °C, the supernatant was removed, and the cells were washed and then collected by treating them with 1 M NaOH. The activity of the collected samples was measured with the gamma counter. This assay was performed in triplicate for each radiopeptide.

[2] = target: T1, GRPR (Homo sapiens, UniProt P30550); parameters: method as in PMID 19480415; conditions: LigandTracer, PC-3 cells, previously published data, cited from earlier work
T1 construct: 3 × 10^6 PC-3 cells were seeded in 100 mm Petri dishes; host or cells: PC-3 human prostate cancer cells
T1 sequence (P30550 whole entry): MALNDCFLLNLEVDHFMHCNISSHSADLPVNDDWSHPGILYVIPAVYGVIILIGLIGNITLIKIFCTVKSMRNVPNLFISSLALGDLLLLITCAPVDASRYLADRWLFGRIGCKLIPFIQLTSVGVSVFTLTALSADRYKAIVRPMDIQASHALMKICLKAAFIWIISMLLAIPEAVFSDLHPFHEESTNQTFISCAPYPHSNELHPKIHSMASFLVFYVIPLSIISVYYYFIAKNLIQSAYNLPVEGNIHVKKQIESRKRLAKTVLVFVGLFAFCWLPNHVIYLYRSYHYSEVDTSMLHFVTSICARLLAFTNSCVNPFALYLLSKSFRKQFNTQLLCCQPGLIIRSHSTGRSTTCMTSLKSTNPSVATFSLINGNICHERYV

| Compound | in vitro binding specificity [1] | ka1 ([2]; 1 and 5 nM) [M⁻¹ s⁻¹] | ka2 ([2]; 1 and 5 nM) [M⁻¹ s⁻¹] | kd1 ([2]; 1 and 5 nM) | kd2 ([2]; 1 and 5 nM) | Bmax1 / Bmax2 [2] |
| --- | --- | --- | --- | --- | --- | --- |
| CC(C)C[C@H](NC(=O)C[C@H](O)[C@H](CC(C)C)NC(=O)[C@H](Cc1c[nH]cn1)NC(=O)CN(C)C(=O)[C@@H](NC(=O)[C@H](C)NC(=O)[C@H](Cc1c[nH]c2ccccc12)NC(=O)[C@H](CCC(N)=O)NC(=O)[C@@H](Cc1ccccc1)NC(=O)CN1CCC(NC(=O)COCCOCCNC(=O)CN2CCN(CC(=O)O)CCN(CC(=O)O)CCN(CC(=O)O)CC2)CC1)C(C)C)C(N)=O [[^177Lu]Lu-PKB1, metal not drawn] | GRPR-mediated activity uptake | – | – | – | – | – |
| DOTAGA-PEG2-Pip-[Sar^11]RM26 [[^177Lu]Lu-AU-RM26-M2] [parent compound, AU-RM26-M2 (DOTAGA-PEG2-Pip-[Sar^11]RM26) labeled with Lu-177, previously reported by the authors] | – | 184000 | 1.08e+06 | 3.53 × 10^–5 1/s | 5.94 × 10^–2 1/s | 0.16 |

— article PMC12615863, “Improving GRPR-targeting peptides for radiotheranostics application: insights from chelator modifications and α-methyl-L tryptophan substitution” (EJNMMI Radiopharmacy and Chemistry, 2025)
